Legend:
[1] = target: Glutaminyl-peptide cyclotransferase (Homo sapiens, UniProt Q16769); assay: Biochemical QPCT and QPCTL Activity Assay
[2] = target: Glutaminyl-peptide cyclotransferase-like protein (Homo sapiens, UniProt Q9NXS2); assay: Biochemical QPCT and QPCTL Activity Assay
Glutaminyl-peptide cyclotransferase-like protein, sequence (Q9NXS2 whole entry): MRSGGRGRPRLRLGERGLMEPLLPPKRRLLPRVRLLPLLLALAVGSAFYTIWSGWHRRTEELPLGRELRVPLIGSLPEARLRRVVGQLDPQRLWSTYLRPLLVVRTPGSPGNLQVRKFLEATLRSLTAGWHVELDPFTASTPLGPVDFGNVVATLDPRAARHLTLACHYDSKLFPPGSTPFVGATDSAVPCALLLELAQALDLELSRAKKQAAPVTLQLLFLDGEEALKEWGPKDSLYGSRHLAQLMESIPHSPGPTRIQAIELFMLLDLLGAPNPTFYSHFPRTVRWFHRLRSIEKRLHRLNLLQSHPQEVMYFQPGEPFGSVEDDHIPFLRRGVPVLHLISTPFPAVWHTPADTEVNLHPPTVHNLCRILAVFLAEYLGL

Glutaminyl-peptide cyclotransferase, sequence (Q16769 whole entry): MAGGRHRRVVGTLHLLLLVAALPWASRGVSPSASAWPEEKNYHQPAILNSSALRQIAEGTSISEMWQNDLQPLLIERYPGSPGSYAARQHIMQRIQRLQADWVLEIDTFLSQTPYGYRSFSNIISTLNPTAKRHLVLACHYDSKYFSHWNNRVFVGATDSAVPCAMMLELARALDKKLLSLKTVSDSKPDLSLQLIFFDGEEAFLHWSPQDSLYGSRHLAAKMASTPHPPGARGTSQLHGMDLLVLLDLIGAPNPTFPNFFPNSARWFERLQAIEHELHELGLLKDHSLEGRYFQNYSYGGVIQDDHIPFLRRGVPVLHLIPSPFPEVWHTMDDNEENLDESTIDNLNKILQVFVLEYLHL

IC50 [2] [nM] | SMILES | IC50 [1] [nM]
2 | Cn1cnnc1C1(F)CCN(c2c(C#N)ccnc2-c2cnc3nn(C(C)(C)C(F)(F)F)cc3c2)CC1 [US20240059675, Example 29] | 3
 | Cn1cnnc1C1(F)CCN(c2c(C#N)ccnc2-c2ccc(F)nc2)CC1 [US20240059675, Example 1] | 4
1 | Cn1cnnc1C1(F)CCN(c2c(C#N)ccnc2-c2cnc(F)c(OCC3CC3)c2)CC1 [US20240059675, Example 26] | 

Reference: BindingDB's records for patent US20240059675 (Boehringer Ingelheim International, 2024)
